# Bridge positions count the residues as written; N and C are the ends. Square brackets hold non-standard residues; d marks the D form. Peptide text beside a SMILES is read from it. * marks the point of attachment. Benzoyl(3-Ph) = O=C(c1cccc(-c2ccccc2)c1)*; Quinoline3carbonyl = O=C(c1cnc2ccccc2c1)*; X9 = N#Cc1ccc(-c2cc(C(=O)*)ccc2F)nc1; X29 = COc1cc(C(=O)*)cc(-c2ccccc2)c1; X34 = COc1ccc(-c2cc(C(=O)*)ccn2)cc1; X15 = O=C(c1cccc(-c2cccc(F)c2)c1)*; X6 = O=C(c1cccc(-c2ccc(F)cc2)c1)*; X11 = Cc1ccccc1-c1cccc(C(=O)*)c1; X14 = CC(C)c1cccc(C(=O)*)c1; Dab = NCC[C@H](N)C(=O)O; Dap = NC[C@H](N)C(=O)O
# How the values were obtained:
# [1] = tested on: PA-1646, polymyxin-resistant clinical isolate of Pseudomonas aeruginosa; assay type: cell-based; conditions: PA-1646, polymyxin-resistant clinical isolate of
# Procedure: (§1) Minimum bactericidal concentration (MBC, mg/L), minimum inhibitory concentration (MIC, mg/L), and human renal proximal tubule epithelial cell line cytotoxicity concentration 50% (hRPTEC, TC50, micromolar) for compounds of Formula I are listed in Table 2. The compounds of Formula I were tested as the corresponding trifluoroacetate salt except for Example 1 which was tested as the sulfate salt. For Table 2 below: PMB=polymyxin B as the sulfate salt (Bedford Laboratories, pharmaceutical grade); PMB1=polymyxin B1 as the trifluoroacetate salt; Nona=polymyxin B nonapeptide as the trifluoroacetate salt. PMB1 and Nona were prepared using the solid phase methodology described in the experimental section herein.
# (§2) The in vitro antibacterial activity of compounds of Formula I was evaluated by MIC testing according to Clinical and Laboratory Standards Institute (CLSI). See: Clinical and Laboratory Standards Institute. Methods for Dilution Antimicrobial Susceptibility Tests for Bacteria that Grow Aerobically; Approved Standard-Eighth Edition. CLSI document M7-A8 [ISBN 1-56238-689-1]. Clinical and Laboratory Standards Institute, 940 West Valley Road, Suite 1400, Wayne, Pa. 19087-1898 USA, 2006; also Clinical and Laboratory Standards Institute. Performance Standards for Antimicrobial Susceptibility Testing; Twentieth Informational Supplement. CLSI document M100-S20 [ISBN 1-56238-716-2]. Clinical and Laboratory Standards Institute. Methods for Determining Bactericidal Activity of Antimicrobial Agents; Approved Guideline. CLSI document M26-A (ISBN 1-56238-384-1). CLSI, 940 West Valley Road, Suite 1400, Wayne, Pa. 19087-1898 USA, 1999.
# PA-1646 is a polymyxin-resistant clinical isolate of Pseudomonas aeruginosa obtained from JMI labs (www.jmilabs.com);
# [2] = tested on: AB-1649, polymyxin-resistant clinical isolate of Acinetobacter baumannii; assay type: cell-based; conditions: AB-1649, polymyxin-resistant clinical isolate of
# Procedure: as §1, §2
# (§3) The MIC determination is a standard laboratory method for evaluating the antibacterial activity of a compound. The MIC represents the lowest drug concentration that inhibits visible growth of bacteria following overnight incubation. […] Typically, the drug concentration range is broken down into 2-fold increments (e.g. 0.06 mg/L, 0.12 mg/L, 0.25 mg/L, 0.50 mg/L, 1.0 mg/L, etc.) and the various drug concentrations are all individually incubated overnight with approximately the same number of bacteria. The MIC is then determined by visually inspecting the drug effect at each concentration, and identifying the lowest drug concentration that has inhibited bacterial growth as compared to the drug free control. Typically, bacteria continue to grow at drug concentrations lower than the MIC and don't grow at concentrations at and above the MIC.
# (§4) The MIC values described in Table 2 below were derived from assays wherein each test compound was evaluated in duplicate. In cases where the duplicate values varied by 0-2-fold, the lower of the two values was reported below. Generally speaking, if the duplicate values varied by more than 2-fold, the assay was considered non-valid and was repeated until the variation between duplicate runs was ≦2-fold. In line with the CLSI guidelines referred to above, both control organisms and reference compounds were utilized in each MIC assay to provide proper quality control. MIC values generated with these control organisms and reference compounds were required to fall within a defined range for the assay to be considered valid and be included herein. Those skilled in the art will recognize that MIC values can and do vary from experiment to experiment. Generally speaking, it should be recognized that MIC values often vary +/−2-fold from experiment to experiment. While a single MIC is reported for each compound and each microorganism, the reader should not conclude that each compound was only tested once. Several of the compounds were subjected to multiple tests. The data reported in Table 2 is reflective of the compounds relative activity and different MICs may have been generated on these occasions in line with the guidelines described above.
# (§5) The following bacterial strains were used in these MIC determinations: […]
# [3] = tested on: AB-3167, clinical isolate of Acinetobacter baumannii; assay type: cell-based; conditions: AB-3167, clinical isolate of
# Procedure: as §1, §2, §3, §4, §5
# [4] = tested on: PA-1646, polymyxin-resistant clinical isolate of Pseudomonas aeruginosa; assay type: cell-based; conditions: PA-1646, polymyxin-resistant clinical isolate of; remark: listed apart in the source
# Procedure: as §1, §2, §3, §4, §5
# [5] = tested on: Pseudomonas aeruginosa strain PA01; assay type: cell-based; conditions: strain
# Procedure: as §1, §2, §3, §4, §5
# [6] = tested on: AB-1649, polymyxin-resistant clinical isolate of Acinetobacter baumannii; assay type: cell-based; conditions: AB-1649, polymyxin-resistant clinical isolate of; remark: listed apart in the source
# Procedure: as §1, §2
# AB-1649 is a polymyxin-resistant clinical isolate of Acinetobacter baumannii obtained from JMI labs (www.jmilabs.com);
# [7] = tested on: EC-1, mouse virulent strain of Escherichia coli; assay type: cell-based; conditions: E. coli EC-1; overnight incubation, lower of duplicate values; trifluoroacetate salt (Example 1 and PMB sulfate)
# Procedure: as §1, §2, §3, §4
# The following bacterial strains were used in these MIC determinations:
# EC-1 is a mouse virulent strain of Escherichia coli.
# [8] = Cytotoxicity assay (LDH release), hRPTEC; assay type: cell-based, human; conditions: human
# Procedure: as §1
# Human Renal Proximal Tubule Epithelial cells (hRPTEC) were obtained from Lonza (Walkersville, Md., USA) and cultured in REGM (Renal Epithelial Cell Basal Medium supplemented with human epithelial growth factor, hydrocortisone, epinephrine, insulin, triiodothyronine, transferrin, gentamycin/amphotericin-B, and fetal bovine serum). The hRPTEC cells were seeded into 96-well plates and incubated at 37° C. in 5% CO2. Following a growth period of 72 hours, cells were treated with compounds at 100, 67, 44, 30, 20 and 13 micromolar for 24 hours at 37° C. in 5% CO2. The cell supernatant was then harvested for determination of LDH (lactate dehydrogenase) production. The Cytotoxicity Detection Kit from Roche was used for the measurement of LDH activity released from damaged cells. The Toxic Concentration 50% (TC50, micromolar) values were determined for each compound and compared to the control compounds (polymyxin B was used as a positive control and polymyxin B nonapepetide was used as negative control).
SMILES,PA-1646 MBC [1],AB-1649 MIC [2],AB-3167 MIC [3],PA-1646 MIC [4],PA01 MIC [5],AB-1649 MBC [6],EC-1 MIC [7],CC50 at 24 h [8]
COc1cc(C(=O)N[C@@H](CCN)C(=O)N[C@H](C(=O)N[C@@H](CN)C(=O)N[C@H]2CCNC(=O)[C@H]([C@@H](C)O)NC(=O)[C@H](CCN)NC(=O)[C@H](CCN)NC(=O)[C@H](CC(C)C)NC(=O)[C@@H](Cc3ccccc3)NC(=O)[C@H](CCN)NC2=O)[C@@H](C)O)cc(-c2ccccc2)c1 [Example 17] (X29-[Dab]T[Dap][Dab][Dab][dF]L[Dab][Dab]T; lactam 4-C),4 µg/mL,4 µg/mL,0.25 µg/mL,2 µg/mL,0.5 µg/mL,8 µg/mL,0.25 µg/mL,26 µM
CC(C)C[C@@H]1NC(=O)[C@@H](Cc2ccccc2)NC(=O)[C@H](CCN)NC(=O)[C@@H](NC(=O)[C@H](CN)NC(=O)[C@@H](NC(=O)[C@H](CCN)NC(=O)c2cccc(-c3cccc(F)c3)c2)[C@@H](C)O)CCNC(=O)[C@H]([C@@H](C)O)NC(=O)[C@H](CCN)NC(=O)[C@H](CCN)NC1=O [Example 18] (X15-[Dab]T[Dap][Dab][Dab][dF]L[Dab][Dab]T; lactam 4-C),1 µg/mL,2 µg/mL,0.5 µg/mL,1 µg/mL,1 µg/mL,2 µg/mL,0.25 µg/mL,22 µM
CC(C)C[C@@H]1NC(=O)[C@@H](Cc2ccccc2)NC(=O)[C@H](CCN)NC(=O)[C@@H](NC(=O)[C@H](CN)NC(=O)[C@@H](NC(=O)[C@H](CCN)NC(=O)c2cccc(-c3ccccc3)c2)[C@@H](C)O)CCNC(=O)[C@H]([C@@H](C)O)NC(=O)[C@H](CCN)NC(=O)[C@H](CCN)NC1=O [Example 19] ({Benzoyl(3-Ph)}-[Dab]T[Dap][Dab][Dab][dF]L[Dab][Dab]T; lactam 4-C),2 µg/mL,2 µg/mL,0.25 µg/mL,1 µg/mL,0.5 µg/mL,2 µg/mL,0.25 µg/mL,21 µM
CC(C)C[C@@H]1NC(=O)[C@@H](Cc2ccccc2)NC(=O)[C@H](CCN)NC(=O)[C@@H](NC(=O)[C@H](CN)NC(=O)[C@@H](NC(=O)[C@H](CCN)NC(=O)c2cccc(-c3ccc(F)cc3)c2)[C@@H](C)O)CCNC(=O)[C@H]([C@@H](C)O)NC(=O)[C@H](CCN)NC(=O)[C@H](CCN)NC1=O [Example 20] (X6-[Dab]T[Dap][Dab][Dab][dF]L[Dab][Dab]T; lactam 4-C),1 µg/mL,2 µg/mL,0.25 µg/mL,1 µg/mL,0.5 µg/mL,2 µg/mL,0.25 µg/mL,18 µM
Cc1ccccc1-c1cccc(C(=O)N[C@@H](CCN)C(=O)N[C@H](C(=O)N[C@@H](CN)C(=O)N[C@H]2CCNC(=O)[C@H]([C@@H](C)O)NC(=O)[C@H](CCN)NC(=O)[C@H](CCN)NC(=O)[C@H](CC(C)C)NC(=O)[C@@H](Cc3ccccc3)NC(=O)[C@H](CCN)NC2=O)[C@@H](C)O)c1 [Example 21] (X11-[Dab]T[Dap][Dab][Dab][dF]L[Dab][Dab]T; lactam 4-C),2 µg/mL,2 µg/mL,0.25 µg/mL,2 µg/mL,1 µg/mL,2 µg/mL,0.25 µg/mL,15 µM
COc1ccc(-c2cc(C(=O)N[C@@H](CCN)C(=O)N[C@H](C(=O)N[C@@H](CN)C(=O)N[C@H]3CCNC(=O)[C@H]([C@@H](C)O)NC(=O)[C@H](CCN)NC(=O)[C@H](CCN)NC(=O)[C@H](CC(C)C)NC(=O)[C@@H](Cc4ccccc4)NC(=O)[C@H](CCN)NC3=O)[C@@H](C)O)ccn2)cc1 [Example 22] (X34-[Dab]T[Dap][Dab][Dab][dF]L[Dab][Dab]T; lactam 4-C),8 µg/mL,2 µg/mL,0.25 µg/mL,2 µg/mL,0.5 µg/mL,2 µg/mL,0.25 µg/mL,78 µM
CC(C)C[C@@H]1NC(=O)[C@@H](Cc2ccccc2)NC(=O)[C@H](CCN)NC(=O)[C@@H](NC(=O)[C@H](CN)NC(=O)[C@@H](NC(=O)[C@H](CCN)NC(=O)c2cnc3ccccc3c2)[C@@H](C)O)CCNC(=O)[C@H]([C@@H](C)O)NC(=O)[C@H](CCN)NC(=O)[C@H](CCN)NC1=O [Example 23] (Quinoline3carbonyl-[Dab]T[Dap][Dab][Dab][dF]L[Dab][Dab]T; lactam 4-C),4 µg/mL,4 µg/mL,0.5 µg/mL,4 µg/mL,0.25 µg/mL,8 µg/mL,0.125 µg/mL,> 100 µM
CC(C)C[C@@H]1NC(=O)[C@@H](Cc2ccccc2)NC(=O)[C@H](CCN)NC(=O)[C@@H](NC(=O)[C@H](CN)NC(=O)[C@@H](NC(=O)[C@H](CCN)NC(=O)c2ccc(F)c(-c3ccc(C#N)cn3)c2)[C@@H](C)O)CCNC(=O)[C@H]([C@@H](C)O)NC(=O)[C@H](CCN)NC(=O)[C@H](CCN)NC1=O [Example 24] (X9-[Dab]T[Dap][Dab][Dab][dF]L[Dab][Dab]T; lactam 4-C),16 µg/mL,4 µg/mL,0.5 µg/mL,4 µg/mL,1 µg/mL,8 µg/mL,0.25 µg/mL,> 100 µM
CC(C)C[C@@H]1NC(=O)[C@@H](Cc2ccccc2)NC(=O)[C@H](CCN)NC(=O)[C@@H](NC(=O)[C@H](CN)NC(=O)[C@@H](NC(=O)[C@H](CCN)NC(=O)c2cccc(C(C)C)c2)[C@@H](C)O)CCNC(=O)[C@H]([C@@H](C)O)NC(=O)[C@H](CCN)NC(=O)[C@H](CCN)NC1=O [Example 25] (X14-[Dab]T[Dap][Dab][Dab][dF]L[Dab][Dab]T; lactam 4-C),16 µg/mL,4 µg/mL,0.25 µg/mL,4 µg/mL,1 µg/mL,4 µg/mL,0.25 µg/mL,88 µM

# From patent US20120316105A1, “Polymyxin Derivates Useful As Antibacterial Agents” (priority 2011, published 2012)
